{"source": "patent US7998989B2", "about": "“2-Imino-1,3-thiazoline-based compounds and T-type calcium channel inhibitors containing the same” (Korea Institute of Science and Technology, priority 2007, dated 2011)", "note": "Where a name gives a salt, the structure may show the parent alone."}
{"target": "T1, α1G T-type calcium channel (Homo sapiens, UniProt O43497)", "T1 construct": "host or cells: HEK293", "T1 sequence (O43497 whole entry)": "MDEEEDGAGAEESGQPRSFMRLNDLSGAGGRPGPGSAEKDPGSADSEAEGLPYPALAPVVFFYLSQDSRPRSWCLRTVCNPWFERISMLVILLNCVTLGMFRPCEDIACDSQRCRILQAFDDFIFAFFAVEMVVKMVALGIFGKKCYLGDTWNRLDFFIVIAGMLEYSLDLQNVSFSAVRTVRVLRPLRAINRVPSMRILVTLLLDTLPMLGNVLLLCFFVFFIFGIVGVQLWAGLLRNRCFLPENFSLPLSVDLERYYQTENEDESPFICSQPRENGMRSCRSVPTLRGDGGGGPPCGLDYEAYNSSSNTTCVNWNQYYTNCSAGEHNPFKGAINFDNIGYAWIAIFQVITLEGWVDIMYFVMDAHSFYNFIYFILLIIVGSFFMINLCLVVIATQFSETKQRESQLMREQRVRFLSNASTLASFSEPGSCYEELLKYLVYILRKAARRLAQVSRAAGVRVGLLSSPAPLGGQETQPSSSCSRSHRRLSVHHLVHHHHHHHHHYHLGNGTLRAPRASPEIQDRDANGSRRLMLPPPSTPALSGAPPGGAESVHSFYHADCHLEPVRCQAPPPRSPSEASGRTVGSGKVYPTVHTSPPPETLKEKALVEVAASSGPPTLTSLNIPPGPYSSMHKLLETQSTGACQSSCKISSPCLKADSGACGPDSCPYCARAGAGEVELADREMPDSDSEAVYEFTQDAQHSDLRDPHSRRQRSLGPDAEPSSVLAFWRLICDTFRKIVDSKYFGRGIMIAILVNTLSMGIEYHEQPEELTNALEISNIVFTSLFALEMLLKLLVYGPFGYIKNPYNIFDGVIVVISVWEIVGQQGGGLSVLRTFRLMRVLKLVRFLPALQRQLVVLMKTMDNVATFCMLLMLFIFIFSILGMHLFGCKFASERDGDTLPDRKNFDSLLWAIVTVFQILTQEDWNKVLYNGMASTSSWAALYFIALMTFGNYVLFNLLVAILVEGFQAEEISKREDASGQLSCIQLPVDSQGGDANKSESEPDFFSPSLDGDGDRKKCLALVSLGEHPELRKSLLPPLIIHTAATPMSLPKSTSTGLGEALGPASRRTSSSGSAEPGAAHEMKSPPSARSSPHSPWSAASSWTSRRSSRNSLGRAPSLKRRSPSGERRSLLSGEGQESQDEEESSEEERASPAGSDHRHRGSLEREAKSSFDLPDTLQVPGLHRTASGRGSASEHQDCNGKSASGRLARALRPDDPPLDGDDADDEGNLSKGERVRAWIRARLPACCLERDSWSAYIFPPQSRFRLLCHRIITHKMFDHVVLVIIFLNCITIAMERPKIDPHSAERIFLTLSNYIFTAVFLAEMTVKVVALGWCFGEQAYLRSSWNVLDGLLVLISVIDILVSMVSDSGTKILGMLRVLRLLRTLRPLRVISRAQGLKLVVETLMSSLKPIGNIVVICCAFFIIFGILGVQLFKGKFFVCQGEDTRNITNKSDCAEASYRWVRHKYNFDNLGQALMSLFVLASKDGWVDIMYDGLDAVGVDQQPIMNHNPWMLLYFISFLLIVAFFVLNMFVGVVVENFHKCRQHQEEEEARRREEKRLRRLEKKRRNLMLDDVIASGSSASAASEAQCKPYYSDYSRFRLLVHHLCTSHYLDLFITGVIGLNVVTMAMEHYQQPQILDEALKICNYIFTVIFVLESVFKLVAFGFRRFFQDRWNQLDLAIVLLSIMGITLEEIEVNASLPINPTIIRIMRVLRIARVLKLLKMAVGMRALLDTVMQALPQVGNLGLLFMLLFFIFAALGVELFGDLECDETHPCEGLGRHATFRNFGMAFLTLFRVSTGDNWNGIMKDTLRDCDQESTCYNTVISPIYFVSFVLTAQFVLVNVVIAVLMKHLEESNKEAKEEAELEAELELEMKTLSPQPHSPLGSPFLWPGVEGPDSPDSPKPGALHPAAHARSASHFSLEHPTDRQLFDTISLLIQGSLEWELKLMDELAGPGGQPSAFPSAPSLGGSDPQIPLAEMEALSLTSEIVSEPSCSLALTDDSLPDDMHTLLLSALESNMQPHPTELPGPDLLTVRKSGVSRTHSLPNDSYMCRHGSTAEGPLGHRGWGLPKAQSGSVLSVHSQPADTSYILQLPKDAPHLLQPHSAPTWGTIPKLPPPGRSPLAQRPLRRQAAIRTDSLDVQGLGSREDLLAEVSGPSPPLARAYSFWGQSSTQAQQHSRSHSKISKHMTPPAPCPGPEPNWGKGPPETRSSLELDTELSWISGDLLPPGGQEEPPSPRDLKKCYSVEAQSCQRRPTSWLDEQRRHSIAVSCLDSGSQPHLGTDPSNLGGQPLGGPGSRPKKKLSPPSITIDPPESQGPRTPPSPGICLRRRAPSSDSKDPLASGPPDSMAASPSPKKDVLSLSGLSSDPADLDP", "experiment": "Assay for % inhibiting activity against T-type calcium channel using FDSS6000 (fluo-3 calcium imaging, KCl activation)", "format": "cell-based", "conditions": "10 μM; FDSS (% inhibition); comparative compounds where R6 is a phenyl group; read-out: FDSS", "protocol": "(§1) In the present invention, in order to examine an efficient inhibitor against the T-type calcium channel, a primary assay for T-type calcium channel inhibiting activity was conducted by a high-efficient assay using FDSS6000, wherein mammal HEK293 cell lines (originated from human kidney carcinoma cells) that specifically express α1G of the T-type calcium channel was used for primary assay. Through the primary assay, compounds that show meaningful inhibition effects were selected. The selected compounds were used in a second assay for T-type calcium channel inhibiting activity using an electrophysiological whole cell patch clamp method, wherein mammal HEK293 cell lines (originated from human kidney carcinoma cells) that specifically express α1G of the T-type calcium channel was used for the second assay. Mibefradil, which had been developed as a T-type calcium channel inhibitor, was used as a reference.\n(§2) At 12-24 hours before being used for this assay, cells of HEK293 cell line (α1G cell line: KCTC 10519BP, Korean Collection for Type Cultures), which stably express α1G T-type calcium channel and Kir2.1, were sub-cultured in a poly-L-lysine treated 96-well plate with the density of 4×10^4 per well using a 96-well cell dispenser (Titertek). On the day of assay, the 96-well plate to which the cells were attached was washed three times with HEPES buffer solution (150 mM of NaCl, 5 mM of KCl, 1 mM of MgCl2, 2 mM of CaCl2, 10 mM of HEPES, 10 mM of glucose; pH 7.4) using a 96-well plate automatic washing device (Bio Tek), then reacted with HEPES buffer solution containing 5 μM fluo-3/AM and 0.001% Pluronic F-127 at room temperature for 1 hour, to label with fluorescent dye, and then further washed two times with HEPES buffer solution.\n(§3) Thereafter, at 10 minutes before the measurement using device FDSS6000, washing with HEPES buffer solution containing 10 mM CaCl2 was conducted once more, and the final volume was adjusted to 81 μl. Besides the above 96-well plate containing the cells, two additional drug 96-well plates were provided, wherein the 96-well plates contained an inhibiting drug and KCl (final concentration: 75 mM) for activating the T-type calcium channel, respectively. Since most of cell-based HTS devices are equipped with a liquid application system for injection of drug, but have no liquid sucking system, the inhibiting drug to be tested and KCl were respectively provided at a five-times higher concentration in 10 mM CaCl2 HEPES buffer solution at the amount of 27 μl, diluted by five-times at the final cell plate volume of 135 μl, and then used in this test. The concrete method of measurement using FDSS6000 was as follows. After recording the reference value of 20 seconds, the change of intracellular Ca^2+ concentration that was induced by treatment of the inhibiting drug to be tested for 75 seconds followed by administration of KCl was measured, wherein the percentage (%) inhibition effect of the test drug, through estimating the area of ratio value of 340/380 in the control without treatment of the test drug, was 100%. As a reference drug, 10 μM mibefradil was used.\n(§4) For accurate calcium imaging, the light source of 4 xenon lamps in FDSS6000 were radiated to selectively expose the cells to the excitation wavelength (340 nm and 380 nm) by a computer-controlled filter wheel. Data was obtained at intervals of 1.23 seconds. The emitter fluorescence light inflowed through a long-pass filter was obtained as an average 340/380 ratio value for each well in the 96-wells by using a CCD camera and a digital fluorescence analyzer in FDSS6000. All image data and analyses were obtained by using a FDSS6000-exclusive program from Hamamatsu Photonics.\n(§5) The obtained results are shown in Table 2 (the results from the compounds according to the examples of the present invention) and Table 3 (the results from the compounds according to the comparative example where R6 is a phenyl group) [FDSS (% inhibition) 10 μM].", "units": {"inhibition at 10 µM": "%"}}
{"smiles": "COc1ccc(N=C2SCC(CC(=O)Nc3ccc(Cl)cc3)N2C)cc1.Cl", "note": "(stereo not shown) [KHG21648, [2-(4-methoxyphenylimino)-3-methyl-1,3-thiazolidine-4-yl]-N-(4-chlorophenyl)-acetamide hydrochloride]", "inhibition at 10 µM": 26.2}
{"smiles": "COc1cccc(N=C2SCC(CC(=O)Nc3ccc(Cl)cc3)N2C)c1.Cl", "note": "(stereo not shown) [KHG21649, [2-(3-methoxyphenylimino)-3-methyl-1,3-thiazolidine-4-yl]-N-(4-chlorophenyl)-acetamide hydrochloride]", "inhibition at 10 µM": 27.8}
{"target": "T1, α1G T-type calcium channel", "experiment": "Assay for % inhibiting activity against T-type calcium channel using FDSS6000 (fluo-3 calcium imaging, KCl activation)", "format": "cell-based", "conditions": "10 μM; HEK293 cells stably expressing α1G T-type calcium channel and Kir2.1; compounds of the examples", "protocol": "as §1, §2, §3, §4, §5", "units": {"FDSS (% inhibition)/10uM": "%"}}
{"smiles": "CCCCc1ccc(NC(=O)CC2CSC(=NC34CC5CC(CC(C5)C3)C4)N2C)cc1.Cl", "note": "(stereo not shown) [KHG24409]", "FDSS (% inhibition)/10uM": 57.43}
{"smiles": "CN1C(=NC23CC4CC(CC(C4)C2)C3)SCC1CC(=O)Nc1ccc(Cl)cc1F.Cl", "note": "(stereo not shown) [KHG24411]", "FDSS (% inhibition)/10uM": 62.67}
{"smiles": "CN1C(=NC23CC4CC(CC(C4)C2)C3)SCC1CC(=O)Nc1ccccc1.Cl", "note": "(stereo not shown) [KHG24412]", "FDSS (% inhibition)/10uM": 56.4}
{"smiles": "CCCCN1C(=NC23CC4CC(CC(C4)C2)C3)SCC1CC(=O)Nc1ccc2c(c1)OCO2.Cl", "note": "(stereo not shown) [KHG24803, [2-(1-adamantylimino)-3-n-butyl-1,3-thiazolidine-4-yl]-N-(3,4-dioxymethylenephenyl)-acetamide hydrochloride]", "FDSS (% inhibition)/10uM": 66.47}
{"smiles": "Cl.O=C(CC1CSC(=NC23CC4CC(CC(C4)C2)C3)N1C1CC1)Nc1ccc2c(c1)OCO2", "note": "(stereo not shown) [KHG24804, [2-(1-adamantylimino)-3-cyclopropyl-1,3-thiazolidine-4-yl]-N-(3,4-dioxymethylenephenyl)-acetamide hydrochloride]", "FDSS (% inhibition)/10uM": 44.67}
{"smiles": "CCCN1C(=NC23CC4CC(CC(C4)C2)C3)SCC1CC(=O)Nc1ccc2c(c1)OCO2.Cl", "note": "(stereo not shown) [KHG24837, [2-(1-adamantylimino)-3-n-propyl-1,3-thiazolidine-4-yl]-N-(3,4-dioxymethylenephenyl)-acetamide hydrochloride]", "FDSS (% inhibition)/10uM": 68.43}
{"smiles": "CC(C)N1C(=NC23CC4CC(CC(C4)C2)C3)SCC1CC(=O)Nc1ccc2c(c1)OCO2.Cl", "note": "(stereo not shown) [KHG24838, [2-(1-adamantylimino)-3-isopropyl-1,3-thiazolidine-4-yl]-N-(3,4-dioxymethylenephenyl)-acetamide hydrochloride]", "FDSS (% inhibition)/10uM": 53.33}
{"target": "T1, α1G T-type calcium channel", "experiment": "Assay for % inhibiting activity against T-type calcium channel using FDSS6000 (fluo-3 calcium imaging, KCl activation)", "format": "cell-based", "conditions": "10 μM; HEK293 cells stably expressing α1G T-type calcium channel and Kir2.1; compounds of the examples; hydrochloride", "protocol": "as §1, §2, §3, §4, §5", "units": {"FDSS (% inhibition)/10uM": "%"}}
{"smiles": "CCc1ccc(NC(=O)CC2CSC(=NC3CCCC3)N2C)cc1.Cl", "note": "(stereo not shown) [KHG24093, (2-cyclopentylimino-3-methyl-1,3-thiazolidine-4-yl)-N-(4-ethylphenyl)-acetamide hydrochloride]", "FDSS (% inhibition)/10uM": 34.77}
{"smiles": "CN1C(=NC23CC4CC(CC(C4)C2)C3)SCC1CC(=O)Nc1cc(Cl)cc(Cl)c1.Cl", "note": "(stereo not shown) [KHG24410]", "FDSS (% inhibition)/10uM": 64.09}
{"smiles": "Cc1ccc(NC(=O)CC2CSC(=NC34CC5CC(CC(C5)C3)C4)N2C)c(Cl)c1.Cl", "note": "(stereo not shown) [KHG24413]", "FDSS (% inhibition)/10uM": 62.08}
{"smiles": "Cc1ccc(NC(=O)CC2CSC(=NC3CCCCC3)N2C2CCCCC2)cc1.Cl", "note": "(stereo not shown) [KHG24535, (2-cyclohexylimino-3-cyclohexyl-1,3-thiazolidine-4-yl)-N-(4-methylphenyl)-acetamide hydrochloride]", "FDSS (% inhibition)/10uM": 40.31}
{"target": "T1, α1G T-type calcium channel", "experiment": "Assay for % inhibiting activity against T-type calcium channel using FDSS6000 (fluo-3 calcium imaging, KCl activation)", "format": "cell-based", "conditions": "HEK293, 10 μM; HEK293 cells stably expressing α1G T-type calcium channel and Kir2.1; compounds of the examples; read-out: FDSS (% inhibition)/10uM", "protocol": "as §1, §2, §3, §4, §5", "units": {"inhibition at 10 µM": "%"}}
{"smiles": "CN1C(=NC2CCCCC2)SCC1CC(=O)Nc1ccc2c(c1)OCO2", "note": "(stereo not shown) [KHG24086, (2-cyclohexylimino-3-methyl-1,3-thiazolidine-4-yl)-N-(3,4-methylenedioxyphenyl)-acetamide hydrochloride]", "inhibition at 10 µM": 30.5}
{"smiles": "CN1C(=NC2CCCCC2)SCC1CC(=O)Nc1cc(F)ccc1F", "note": "(stereo not shown) [KHG24087, (2-cyclohexylimino-3-methyl-1,3-thiazolidine-4-yl)-N-(2,5-difluorophenyl)-acetamide hydrochloride]", "inhibition at 10 µM": 35.4}
{"smiles": "CCc1ccc(NC(=O)CC2CSC(=NC3CCCC3)N2C)cc1.Cl", "note": "(stereo not shown) [KHG24092, (2-cyclopentylimino-3-methyl-1,3-thiazolidine-4-yl)-N-(4-ethylphenyl)-acetamide hydrochloride]", "inhibition at 10 µM": 43.1}
{"smiles": "CC(C)c1ccc(NC(=O)CC2CSC(=NC3CCCCC3)N2C)cc1", "note": "(stereo not shown) [KHG24110, (2-cyclohexylimino-3-methyl-1,3-thiazolidine-4-yl)-N-(4-isopropylphenyl)-acetamide hydrochloride]", "inhibition at 10 µM": 53.6}
{"smiles": "Cl.O=C(CC1CSC(=NC2CCCCC2)N1C1CCCCC1)Nc1ccc(Cl)cc1", "note": "(stereo not shown) [KHG24266, [2-cyclohexylimino-3-cyclohexyl-1,3-thiazolidine-4-yl]-N-(4-chlorophenyl)-acetamide hydrochloride]", "inhibition at 10 µM": 33.6}
{"smiles": "Cl.O=C(CC1CSC(=NC2CCCCC2)N1C1CCCCC1)Nc1cc(C(F)(F)F)cc(C(F)(F)F)c1", "note": "(stereo not shown) [KHG24307, (2-cyclohexylimino-3-cyclohexyl-1,3-thiazolidine-4-yl)-N-(3,5-ditrifluoromethylphenyl)-acetamide hydrochloride]", "inhibition at 10 µM": 43.9}
{"smiles": "Cc1ccc(NC(=O)CC2CSC(=NC3CCCCC3)N2C2CCCCC2)cc1.Cl", "note": "(stereo not shown) [KHG24313, (2-cyclohexylimino-3-cyclohexyl-1,3-thiazolidine-4-yl)-N-(4-methylphenyl)-acetamide hydrochloride]", "inhibition at 10 µM": 31}
{"smiles": "CN1C(=NC2CCCCCC2)SCC1CC(=O)Nc1ccc(N)cc1", "note": "(stereo not shown) [KHG24448, (2-cycloheptylimino-3-methyl-1,3-thiazolidine-4-yl)-N-(4-aminophenyl)-acetamide hydrochloride]", "inhibition at 10 µM": 47.4}
{"smiles": "CN1C(=NC2CCCCCC2)SCC1CC(=O)NCc1ccc(N)cc1", "note": "(stereo not shown) [KHG24449, (2-cycloheptylimino-3-methyl-1,3-thiazolidine-4-yl)-N-(4-aminobenzyl)-acetamide hydrochloride]", "inhibition at 10 µM": 40.5}
{"smiles": "CN1C(=NC2CCCCC2)SCC1CC(=O)Nc1cc(C(F)(F)F)cc(C(F)(F)F)c1", "note": "(stereo not shown) [KHG24529, (2-cyclohexylimino-3-methyl-1,3-thiazolidine-4-yl)-N-(3,5-ditrifluoromethylphenyl)-acetamide hydrochloride]", "inhibition at 10 µM": 58.2}
{"smiles": "Cc1ccc(NC(=O)C2CSC(=NC3CCCCCC3)N2C)cc1", "note": "(stereo not shown) [KHG24628, (2-cycloheptylimino-3-methyl-1,3-thiazolidine-4-yl)-N-(4-methylphenyl)-carboxamide]", "inhibition at 10 µM": 42.6}
{"smiles": "CN1C(=NC2CCCCCC2)SCC1C(=O)Nc1cc(C(F)(F)F)cc(C(F)(F)F)c1", "note": "(stereo not shown) [KHG24630, (2-cycloheptylimino-3-methyl-1,3-thiazolidine-4-yl)-N-(3,5-ditrifluoromethylphenyl)-carboxamide]", "inhibition at 10 µM": 56.8}
{"test_system": "not given", "experiment": "not given", "conditions": "not given", "units": {"melting point": "°C"}}
{"smiles": "COc1ccc(N=C2SCC(CC(=O)Nc3ccc(Cl)cc3)N2C)cc1.Cl", "note": "(stereo not shown) [KHG21648, [2-(4-methoxyphenylimino)-3-methyl-1,3-thiazolidine-4-yl]-N-(4-chlorophenyl)-acetamide hydrochloride]", "melting point": "250 to 253"}
{"smiles": "COc1cccc(N=C2SCC(CC(=O)Nc3ccc(Cl)cc3)N2C)c1.Cl", "note": "(stereo not shown) [KHG21649, [2-(3-methoxyphenylimino)-3-methyl-1,3-thiazolidine-4-yl]-N-(4-chlorophenyl)-acetamide hydrochloride]", "melting point": "228 to 231"}
{"smiles": "CN1C(=NC2CCCCCC2)SCC1C(=O)Nc1ccc(Oc2ccccc2)cc1", "note": "(stereo not shown) [KHG24682, (2-cycloheptylimino-3-methyl-1,3-thiazolidine-4-yl)-N-(4-phenoxyphenyl)-carboxamide]", "melting point": 278.6}
{"smiles": "CN1C(=NC2CCCCCC2)SCC1C(=O)Nc1ccc(C(C)(C)C)cc1", "note": "(stereo not shown) [KHG24684, (2-cycloheptylimino-3-methyl-1,3-thiazolidine-4-yl)-N-(4-t-butylphenyl)-carboxamide]", "melting point": 170.8}
{"smiles": "CN1C(=NC2CCCCCC2)SCC1C(=O)Nc1cc(Cl)ccc1F", "note": "(stereo not shown) [KHG24686, (2-cycloheptylimino-3-methyl-1,3-thiazolidine-4-yl)-N-(5-chloro-2-fluorophenyl)-carboxamide]", "melting point": 241.2}
{"smiles": "CCCCc1ccc(NC(=O)C2CSC(=NC3CCCCCC3)N2C)cc1", "note": "(stereo not shown) [KHG24689, (2-cycloheptylimino-3-methyl-1,3-thiazolidine-4-yl)-N-(4-n-butylphenyl)-carboxamide]", "melting point": 173.3}
